Measurements: patent US9114149B2, “[CU(thp)4]n[X]-n compounds for the treatment of a broad range of human solid tumors, including refractory tumors” (Universita Degli Studi Di Padova, priority 2011, dated 2015)
Values joined by “and” are separate entries in the source; they are usually repeats but may differ in a detail not shown here. Identical values can stand only once.

Experiments:
C-33 A = assay: MTT cytotoxicity, C-33 A (cervix); assay type: cell-based, human; settings: MTT test, 72 hrs
Text: (§1) The in vitro antitumor activity of CP had been deeply evaluated in several human cancer cell lines by in vitro cytotoxicity assays. CP cytotoxicity has been detected in a large panel of human cell lines derived from a wide variety of solid tumors, including refractory tumors. In Table 1, the cytotoxicity parameters IC50 (that is the median growth inhibitory concentrations calculated from dose-survival curves via MTT test) are tabulated.
(§2) Cell lines representative of lung (H157, U1810, U1285, Calu-1), pancreas (MIA PaCa-2, BxPC-3, AsPC-1, Capan-1), liver (Huh-7, Hep 3B, SK-Hep-1), oesophagus (OE33, OE21), oesophagus/gastric cardia (OE19), stomach (BGC-823, AGS), colon (HCT-116, T84, COLO 205), breast (MDA-MB-231, SK-BR-3), cervix (CaSki, C-33 A) ovarian (A2780, SK-OV-3, IGROV1), prostate (LnCaP, PC-3) cancers along with melanoma (MEWO, G361, C-32), neuroblastoma (SH-SY5Y, SK-N-AS, IMR-32) and osteosarcoma (U-2 OS, MG-63) have been treated with increasing concentration of CP for 72 hrs.

SH-SY5Y = assay: MTT cytotoxicity, SH-SY5Y (brain); assay type: cell-based, human; settings: MTT test, 72 hrs
U1285 = assay: MTT cytotoxicity, U1285 (lung); assay type: cell-based, human; settings: MTT test, 72 hrs
Text: as §1, §2

Hep 3B = assay: MTT cytotoxicity, Hep 3B (liver); assay type: cell-based, human; settings: MTT test, 72 hrs
Text: as §1, §2

COLO 205 = assay: MTT cytotoxicity, COLO 205 (colon); assay type: cell-based, human; settings: MTT test, 72 hrs
Text: as §1, §2

[1] = system: human lung (MRC-5) fibroblasts; assay: Cytotoxicity towards human non-tumor cells, MRC-5; assay type: cell-based; settings: MRC-5 human lung fibroblasts (non-tumor); MTT test, 72 hrs
BxPC-3 = assay: MTT cytotoxicity, BxPC-3 (pancreas); assay type: cell-based, human; settings: MTT test, 72 hrs
Text: as §1, §2

[2] = system: human ovarian adenocarcinoma cells resistant (A2780cisR) to CDDP; assay: Cross resistance MTT test, A2780cisR (CDDP resistant); assay type: cell-based; settings: for IC50: A2780cisR (CDDP resistant), MTT test, 72 h, probit analysis; for R.F. (Resistant factor): IC50 resistant/parent line: A2780cisR / A2780
[3] = system: human foreskin (HFFF2) fibroblasts; assay: Cytotoxicity towards human non-tumor cells, HFFF2; assay type: cell-based; settings: MTT test, 72 hrs
OE33 = assay: MTT cytotoxicity, OE33 (oesophagus); assay type: cell-based, human; settings: MTT test, 72 hrs
Text: as §1, §2

A2780 = assay: MTT cytotoxicity, A2780 (ovary); assay type: cell-based, human; settings: MTT test, 72 hrs
Text: as §1, §2

[4] = system: human osteosarcoma cells sensitive (U-2 OS); assay: Cross resistance MTT test, U-2 OS (CDDP sensitive); assay type: cell-based; settings: 72 h, probit analysis
[5] = system: Lewis lung carcinoma (LLC); assay: Advanced-stage treatment (2) of LLC-bearing mice; assay type: in vivo, C57BL mice; settings: advanced-stage (2); for Average tumor weight (mean ± S.D.): day 15; for Inhibition of tumor growth: day 15, referred to control
Method: Body weight was measured at day 1 and every two days from day 9 and was taken as a parameter of systemic toxicity. The X axis indicates the days after transplantation whereas the Y axis indicates the percentage of body weight changes. […] The error bars indicate the SD.
The complete disappearance of primary tumors in these mice was confirmed by dissection on day 15.
(§3) The in vivo antitumor activity of CP in LLC tumor model has been further investigated by means of other protocols, such as advanced-stage treatment (1), and advanced-stage treatment (2). For upstaged or advanced stage disease, LLC tumors were allowed to establish and grow to visible (advanced-stage treatment 1) and palpable (advanced-stage treatment 2) size before the start of chemotherapy. The results shown in Table 8 and 9, attested that CP was efficacious even at the lowest dose schedules.

G361 = assay: MTT cytotoxicity, G361 (skin); assay type: cell-based, human; settings: MTT test, 72 hrs
Text: as §1, §2

MDA-MB-231 = assay: MTT cytotoxicity, MDA-MB-231 (breast); assay type: cell-based, human; settings: MTT test, 72 hrs
Text: as §1, §2

[6] = system: Lewis lung carcinoma (LLC); assay: Early-stage treatment of LLC-bearing mice; assay type: in vivo, C57BL mice; settings: for Average tumor weight (mean ± S.D.) / Inhibition of tumor growth: early-stage; for Average tumor weight (mean ± S.D.): day 15; for Inhibition of tumor growth: day 15, referred to control
Method: Body weight was measured every two days and was taken as a parameter of systemic toxicity. The X axis indicates the days after transplantation whereas the Y axis indicates the percentage of body weight changes. […] The error bars indicate the SD.
The antitumor efficacy of CP was evaluated in a model of solid tumor, the syngeneic murine Lewis Lung Carcinoma (also indicated as LLC). […] Body weight of tumor-bearing mice has been measured every two days simultaneously with antitumor analyses and was taken as a parameter of systemic toxicity.
LLC was implanted intramuscularly (i.m., 2×10^6 cells inoculum) into the right hind leg of 8-week old inbred C57BL mice (24±3 g body weight) and, after 24 h from tumor implantation, mice were randomly divided into five groups (8 animals per group, 10 controls). CP was dosed at 25, 35 and 50 mk/kg i.p. on days 3, 5, 7, 9, 11 and 13 after tumor implantation. […] At day 15, animals were sacrificed, and the inhibition of tumor growth was evaluated.

BGC-823 = assay: MTT cytotoxicity, BGC-823 (stomach); assay type: cell-based, human; settings: MTT test, 72 hrs
Text: as §1, §2

IMR-32 = assay: MTT cytotoxicity, IMR-32 (brain); assay type: cell-based, human; settings: MTT test, 72 hrs
[7] = system: human osteosarcoma cells resistant (U-2 OS/Pt) to CDDP; assay: Cross resistance MTT test, U-2 OS Pt (CDDP resistant); assay type: cell-based; settings: for IC50: U-2 OS Pt (CDDP resistant), MTT test, 72 h, probit analysis
CaSki = assay: MTT cytotoxicity, CaSki (cervix); assay type: cell-based, human; settings: MTT test, 72 hrs
Text: as §1, §2

MEWO = assay: MTT cytotoxicity, MEWO (skin); assay type: cell-based, human; settings: MTT test, 72 hrs
Text: as §1, §2

LNCap = assay: MTT cytotoxicity, LNCap (prostate); assay type: cell-based, human; settings: MTT test, 72 hrs
Text: as §1, §2

[8] = system: Lewis lung carcinoma (LLC); assay: Advanced-stage treatment (1) of LLC-bearing mice; assay type: in vivo, C57BL mice; settings: for Average tumor weight (mean ± S.D.) / Inhibition of tumor growth: advanced-stage (1); for Average tumor weight (mean ± S.D.): day 15; for Inhibition of tumor growth: day 15, referred to control; for adverse effects / body weight changes during therapy: advanced-stage treatments (1) and (2), FIGS. 2 and 3
Method: Body weight was measured at day 1 and every two days from day 7 and was taken as a parameter of systemic toxicity. The X axis indicates the days after transplantation whereas the Y axis indicates the percentage of body weight changes. […] The error bars indicate the SD.
as §3

OE19 = assay: MTT cytotoxicity, OE19 (oesophagus/gastric cardia); assay type: cell-based, human; settings: MTT test, 72 hrs
Text: as §1, §2

C-32 = assay: MTT cytotoxicity, C-32 (skin); assay type: cell-based, human; settings: MTT test, 72 hrs
Text: as §1, §2

[9] = 1.5 mg/kg ip days 3, 5, 7, 9, 11, 13
[10] = 1.5 mg/kg i.p. daily from day 7
[11] = 50 mg/kg ip days 9-11 then 30 mg/kg days 12-14
[12] = 35 mg/kg ip days 3, 5, 7, 9, 11, 13
[13] = 50 mg/kg ip days 3, 5, 7, 9, 11, 13

Row | SMILES | IC50 (C-33 A) [µM] | IC50 (SH-SY5Y) [µM] | IC50 (U1285) [µM] | IC50 (Hep 3B) [µM] | IC50 (COLO 205) [µM] | IC50 [1] [µM] | IC50 (BxPC-3) [µM] | IC50 [2] [µM] | R.F. (Resistant factor) [2] | IC50 [3] [µM] | IC50 (OE33) [µM] | IC50 (A2780) [µM] | IC50 [4] [µM] | IC50 (G361) [µM] | IC50 (MDA-MB-231) [µM] | IC50 (BGC-823) [µM] | IC50 (IMR-32) [µM] | IC50 [7] [µM] | IC50 (CaSki) [µM] | IC50 (MEWO) [µM] | other results
1 | N.N.[Cl][Pt][Cl] [CDDP, cis-diamminodichloro platinum(II)] | 7.42 ± 1.98 | 5.16 ± 1.23 | 4.37 ± 1.06 | 6.15 ± 1.48 | 33.1 ± 2.68 | 19.2 ± 1.35 | 11.5 ± 2.51 | 13.1 ± 2.3 | 5.3 | 20.9 ± 2.33 | 6.87 ± 1.06 | 1.25 ± 1.01 | 5.9 ± 1.4 | 1.32 ± 1.01 | 3.23 ± 1.56 | 3.21 ± 1 | 4.45 ± 0.98 | 14.6 ± 1.3 | 31.1 ± 2.97 | 6.76 ± 1.47 | Average tumor weight (mean ± S.D.) ([5]; 1.5 mg/kg ip daily from day 9): 0.118 ± 0.10 g; Inhibition of tumor growth ([5]; 1.5 mg/kg ip daily from day 9, 1.5 mg/kg): 72% and 72.68%; body weight loss ([6]; early-stage LLC mice, 1.5 mg/kg, after the sixth administration (FIG. 1)): about 30%; Average tumor weight (mean ± S.D.) [6, 9]: 0.168 ± 0.10 g; Inhibition of tumor growth [6, 9]: 73.66%; R.F. (Resistant factor) ([7]; IC50 resistant/parent line: U-2 OS Pt / U-2 OS): 2.5; IC50 (LNCap): 1.08 ± 1.01 µM; Average tumor weight (mean ± S.D.) [8, 10]: 0.061 ± 0.03 g; Inhibition of tumor growth [8, 10]: 87.84%; adverse effects / body weight changes during therapy [8]: substantial weight loss; IC50 (OE19): 7.45 ± 1.37 µM; IC50 (C-32): 1.06 ± 0.98 µM
2 | F[P-](F)(F)(F)(F)F.OC[P+](CO)(CO)[Cu-3]([P+](CO)(CO)CO)([P+](CO)(CO)CO)[P+](CO)(CO)CO [CP, [Cu(thp)4][PF6]] | 3.26 ± 1.57 | 0.66 ± 0.12 | 0.87 ± 0.51 | 0.67 ± 0.47 | 0.65 ± 0.03 | 33 ± 1.76 | 1.34 ± 1.11 | 2.1 ± 1.2 | 1.2 | 31.1 ± 3.48 | 1.87 ± 0.59 | 0.99 ± 0.42 | 3.1 ± 1.1 | 0.98 ± 0.12 | 2.11 ± 1.23 | 1.08 ± 0.66 | 0.72 ± 0.18 | 4.3 ± 1.1 | 3.16 ± 1.45 | 1.13 ± 0.74 | Average tumor weight (mean ± S.D.) [5, 11]: 0.024 ± 0.03 g; Inhibition of tumor growth [5, 11]: 94.44%; tumor regression (in words) ([5]; 50 mg/kg loading then 30 mg/kg maintenance, after the sixth administration): quite complete tumor regression; body weight loss compared with the non-treated group ([6]; early-stage LLC mice, even at the highest doses (FIG. 1)): no significant body weight loss; Average tumor weight (mean ± S.D.) ([6]; 25 mg/kg ip days 3, 5, 7, 9, 11, 13): 0.473 ± 0.12 g; Inhibition of tumor growth ([6]; 25 mg/kg ip days 3, 5, 7, 9, 11, 13, 25 mg/kg): 26% and 25.86%; Average tumor weight (mean ± S.D.) [6, 12]: 0.273 ± 0.04 g; Inhibition of tumor growth [6, 12]: 57.21%; Average tumor weight (mean ± S.D.) [6, 13]: 0.113 ± 0.04 g; Inhibition of tumor growth [6, 13]: 82.28%; IC50 (LNCap): 0.65 ± 0.87 µM; Average tumor weight (mean ± S.D.) ([8]; 30 mg/kg i.p. daily from day 7): 0.088 ± 0.03 g; Inhibition of tumor growth ([8]; 30 mg/kg i.p. daily from day 7): 82.37%; Average tumor weight (mean ± S.D.) ([8]; 50 mg/kg i.p. daily from day 7): 0.071 ± 0.02 g; Inhibition of tumor growth ([8]; 50 mg/kg i.p. daily from day 7): 85.85%; adverse effects / body weight changes during therapy [8]: did not induce any adverse effects; IC50 (OE19): 1.66 ± 0.94 µM; IC50 (C-32): 0.56 ± 0.43 µM
